Where “and” joins values, the source holds several entries; their conditions need not be identical. Identical values can stand only once.
Test system: CN0375-F725-PDC KRAS spheroid viability
Assay: Anticancer human tumor CN0375-F725-PDC patient-derived colon carcinoma cell line growth inhibition [KRAS2]
Details: spheroids with HUVEC and MSC; for viability, T/C: stronger effect = lower value
Outline: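 KRAS-mutant tumor cells were grown as spheroids with HUVEC endothelial cells and human MSCs as stroma. Targeted agents were tested alone and with KRAS pathway inhibitors. Doses started at or near clinical Cmax, or 10 microM, descending half-log.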

[1] = curve of first compound, second compound 0.0316 µM
[2] = curve of first compound, second compound 0.1 µM
[3] = curve of first compound, second compound 0.316 µM
[4] = curve of first compound, second compound 1 µM
[5] = curve of first compound, second compound 3.16 µM
[6] = second compound 0.0316 µM, first compound 0.0316 µM
[7] = second compound 0.0316 µM, first compound 0.1 µM
[8] = second compound 0.0316 µM, first compound 0.316 µM
[9] = second compound 0.0316 µM, first compound 1 µM
[10] = second compound 0.0316 µM, first compound 3.16 µM
[11] = second compound 0.1 µM, first compound 0.0316 µM
[12] = second compound 0.1 µM, first compound 0.1 µM
[13] = second compound 0.1 µM, first compound 0.316 µM
[14] = second compound 0.1 µM, first compound 1 µM
[15] = second compound 0.1 µM, first compound 3.16 µM
[16] = second compound 0.1 µM, first compound 10 µM
[17] = second compound 0.316 µM, first compound 0.0316 µM
[18] = second compound 0.316 µM, first compound 0.1 µM
[19] = second compound 0.316 µM, first compound 0.316 µM
[20] = second compound 0.316 µM, first compound 1 µM
[21] = second compound 0.316 µM, first compound 3.16 µM
[22] = second compound 0.316 µM, first compound 10 µM
[23] = second compound 1 µM, first compound 0.0316 µM
[24] = second compound 1 µM, first compound 0.1 µM
[25] = second compound 1 µM, first compound 0.316 µM
[26] = second compound 1 µM, first compound 1 µM
[27] = second compound 1 µM, first compound 3.16 µM
[28] = second compound 1 µM, first compound 10 µM
[29] = second compound 3.16 µM, first compound 0.0316 µM
[30] = second compound 3.16 µM, first compound 0.1 µM
[31] = second compound 3.16 µM, first compound 0.316 µM
[32] = second compound 3.16 µM, first compound 1 µM
[33] = second compound 3.16 µM, first compound 3.16 µM
[34] = second compound 3.16 µM, first compound 10 µM
[35] = curve of first compound, second compound 10 µM
[36] = second compound 0.1 µM, first compound 0.01 µM
[37] = second compound 0.316 µM, first compound 0.01 µM
[38] = second compound 1 µM, first compound 0.01 µM
[39] = second compound 3.16 µM, first compound 0.01 µM
[40] = second compound 10 µM, first compound 0.0316 µM
[41] = second compound 10 µM, first compound 0.1 µM
[42] = second compound 10 µM, first compound 0.316 µM
[43] = second compound 10 µM, first compound 1 µM
[44] = second compound 10 µM, first compound 3.16 µM
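Note: spheroids exposed to agents for 7 days.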

`O=C(c1cc(Cc2n[nH]c(=O)c3ccccc23)ccc1F)N1CCN(C(=O)C2CC2)CC1` + C=CC(=O)N1CCN(c2nc(OCC3CCCN3C)nc3c2CCN(c2cccc4cccc(C)c24)C3)CC1CC#N showed an IC50 [1] greater than 10 µM, an IC50 [2] greater than 10 µM and an IC50 [3] greater than 10 µM. It also gave an IC50 [4] greater than 10 µM, an IC50 [5] of less than 0.0316 µM and a viability, T/C [6] of 104%. For the same compound, the viability, T/C [7] was 104%, the viability, T/C [8] was 99% and the viability, T/C [9] was 102%. For the same compound, the viability, T/C [10] was 99.4%, the viability, T/C (second compound 0.0316 µM, first compound 10 µM) was 94.7% and the viability, T/C [11] was 108%. The viability, T/C [12] was 107%, the viability, T/C [13] was 101% and the viability, T/C [14] was 98.8%. For the same compound, the viability, T/C [15] was 104%, the viability, T/C [16] was 99.3% and the viability, T/C [17] was 101%. For the same compound, the viability, T/C [18] was 107%, the viability, T/C [19] was 97.5% and the viability, T/C [20] was 99.6%. For the same compound, the viability, T/C [21] was 101%, the viability, T/C [22] was 92.5% and the viability, T/C [23] was 100%. The viability, T/C [24] was 102%, the viability, T/C [25] was 97.9% and the viability, T/C [26] was 90.6%. It also gave a viability, T/C [27] of 103%, a viability, T/C [28] of 89% and a viability, T/C [29] of 34.1%. For the same compound, the viability, T/C [30] was 29%, the viability, T/C [31] was 21.5% and the viability, T/C [32] was 22.7%. The viability, T/C [33] was 28.9% and the viability, T/C [34] was 8.54%.

`CC(=O)OC12COC1CC(O)C1(C)C(=O)C(O)C3=C(C)C(OC(=O)C(O)C(NC(=O)OC(C)(C)C)c4ccccc4)CC(O)(C(OC(=O)c4ccccc4)C21)C3(C)C` (configuration not stated) + COc1cc2nc(C)nc(NC(C)c3cc(N)cc(C(F)(F)F)c3)c2cc1OC1CCOC1 showed an IC50 [2] greater than 3.16 µM, an IC50 [3] greater than 3.16 µM and an IC50 [4] greater than 3.16 µM. The IC50 [5] was greater than 3.16 µM, the IC50 [35] was 1.08 µM and the viability, T/C [36] was 99.6%. The viability, T/C [11] was 96.2%, the viability, T/C [12] was 87.8% and the viability, T/C [13] was 84.4%. For the same compound, the viability, T/C [14] was 80.5%, the viability, T/C [15] was 72.7% and the viability, T/C [37] was 91%. For the same compound, the viability, T/C [17] was 91.8%, the viability, T/C [18] was 83.6% and the viability, T/C [19] was 80%. For the same compound, the viability, T/C [20] was 74.9%, the viability, T/C [21] was 69.5% and the viability, T/C [38] was 89.8%. For the same compound, the viability, T/C [23] was 101%, the viability, T/C [24] was 87.8% and the viability, T/C [25] was 82.7%. It also gave a viability, T/C [26] of 80.4%, a viability, T/C [27] of 71.4% and a viability, T/C [39] of 77.7%. The viability, T/C [29] was 70.6%, the viability, T/C [30] was 75.1% and the viability, T/C [31] was 63.4%. The viability, T/C [32] was 71.1%, the viability, T/C [33] was 63.6% and the viability, T/C (second compound 10 µM, first compound 0.01 µM) was 68.3%. The viability, T/C [40] was 65.6%, the viability, T/C [41] was 64.6% and the viability, T/C [42] was 52.6%. It also gave a viability, T/C [43] of 54.9% and a viability, T/C [44] of 39.9%.

With `CC1(C)CCC(CN2CCN(c3ccc(C(=O)NS(=O)(=O)c4ccc(NCC5CCOCC5)c([N+](=O)[O-])c4)c(Oc4cnc5[nH]ccc5c4)c3)CC2)=C(c2ccc(Cl)cc2)C1` the viability, T/C (compound 0.0316 µM) was 106% [middle of 5 runs], the viability, T/C (compound 0.1 µM) was 102% [middle of 5 runs] and the viability, T/C (compound 0.316 µM) was 106% (3×) and 95.8% and 104%. The viability, T/C (compound 1 µM) was 104% [middle of 5 runs] and the viability, T/C (compound 3.16 µM) was 67.7% [middle of 5 runs].

With `Cn1nccc1Nc1nccc(-c2cc3c(s2)C(C)(C)N(CCN2CCOCC2)C3=O)n1` the viability, T/C (compound 0.0316 µM) was 104% [middle of 5 runs], the viability, T/C (compound 0.1 µM) was 90% [middle of 5 runs] and the viability, T/C (compound 0.316 µM) was 77.5% [middle of 5 runs]. For the same compound, the viability, T/C (compound 1 µM) was 72.3% [middle of 5 runs], the viability, T/C (compound 3.16 µM) was 56.5% [middle of 5 runs] and the viability, T/C (compound 10 µM) was 44.6% [middle of 5 runs]. For the same compound, the IC50 (curve of compound) was 5.56 µM [middle of 5 runs].

`CC1COCCN1c1cc(-c2ccnn2C)c2ccnc(-c3ccn[nH]3)c2n1` (configuration not stated) + C=CC(=O)N1CCN(c2nc(OCC3CCCN3C)nc3c2CCN(c2cccc4cccc(C)c24)C3)CC1CC#N was tested, and the IC50 [1] was greater than 3.16 µM, the IC50 [2] was greater than 3.16 µM and the IC50 [3] was greater than 3.16 µM. For the same compound, the IC50 [4] was greater than 3.16 µM, the IC50 [5] was less than 0.01 µM and the viability, T/C (second compound 0.0316 µM, first compound 0.01 µM) was 109%. It also gave a viability, T/C [6] of 94.6%, a viability, T/C [7] of 84.8% and a viability, T/C [8] of 84.6%. It also gave a viability, T/C [9] of 68.4%, a viability, T/C [10] of 57.2% and a viability, T/C [36] of 99.8%. For the same compound, the viability, T/C [11] was 98.4%, the viability, T/C [12] was 81.4% and the viability, T/C [13] was 79.3%. The viability, T/C [14] was 65.7%, the viability, T/C [15] was 53.4% and the viability, T/C [37] was 98%. For the same compound, the viability, T/C [17] was 93.4%, the viability, T/C [18] was 84.6% and the viability, T/C [19] was 78.5%. For the same compound, the viability, T/C [20] was 65.2%, the viability, T/C [21] was 55.6% and the viability, T/C [38] was 88.1%. It also gave a viability, T/C [23] of 88.3%, a viability, T/C [24] of 75.1% and a viability, T/C [25] of 71%. For the same compound, the viability, T/C [26] was 66.5%, the viability, T/C [27] was 51% and the viability, T/C [39] was 36.8%. The viability, T/C [29] was 35.9%, the viability, T/C [30] was 24.4% and the viability, T/C [31] was 25%. The viability, T/C [32] was 17.5% and the viability, T/C [33] was 20.5%.

For `COc1cc2nccc(Oc3ccc(NC(=O)C4(C(=O)Nc5ccc(F)cc5)CC4)cc3)c2cc1OC` + C=CC(=O)N1CCN(c2nc(=O)n(-c3c(C)ccnc3C(C)C)c3nc(-c4c(O)cccc4F)c(F)cc23)C(C)C1, the IC50 [2] was greater than 10 µM, the IC50 [3] was greater than 10 µM and the IC50 [4] was greater than 10 µM. The IC50 [5] was greater than 10 µM, the IC50 [35] was 1.97 µM and the viability, T/C [11] was 109%. It also gave a viability, T/C [12] of 106%, a viability, T/C [13] of 96.3% and a viability, T/C [14] of 89%. It also gave a viability, T/C [15] of 63.5%, a viability, T/C [16] of 74.1% and a viability, T/C [17] of 113%. The viability, T/C [18] was 102%, the viability, T/C [19] was 92% and the viability, T/C [20] was 85.4%. For the same compound, the viability, T/C [21] was 63.8%, the viability, T/C [22] was 62.1% and the viability, T/C [23] was 114%. For the same compound, the viability, T/C [24] was 117%, the viability, T/C [25] was 94.7% and the viability, T/C [26] was 91.1%. The viability, T/C [27] was 58.2%, the viability, T/C [28] was 71.1% and the viability, T/C [29] was 109%. The viability, T/C [30] was 107%, the viability, T/C [31] was 96.9% and the viability, T/C [32] was 89.8%. For the same compound, the viability, T/C [33] was 51.5%, the viability, T/C [34] was 62.1% and the viability, T/C [40] was 99.4%. The viability, T/C [41] was 96.4%, the viability, T/C [42] was 85.7% and the viability, T/C [43] was 69.3%. It also gave a viability, T/C [44] of 31.9% and a viability, T/C (second compound 10 µM, first compound 10 µM) of 41.1%.
